Measured values taken from patent US20240101528A1, “SUBSTITUTED PYRAZOLO PIPERIDINE CARBOXYLIC ACIDS” (BAYER AKTIENGESELLSCHAFT, priority 2020, published 2024).
Structures can show the parent of a compound that is named as a salt.

Assays:
[1] = Pharmacokinetic parameters following oral administration in rats; type: in vivo, male Wistar rats; details: for F: bioavailability
Method: (§1) B-5. Determination of Pharmacokinetic Parameters Following Intravenous and Oral Administration
(§2) The pharmacokinetic parameters of the compounds according to the invention were determined in male Wistar rats and/or in female beagles and/or in cynomolgus monkeys and/or in male CD-1 mice. Intravenous administration in the case of mice and rats was carried out by means of a species-specific plasma/DMSO formulation, and in the case of dogs and monkeys by means of a water/PEG400/ethanol formulation. In all species, oral administration of the dissolved substance was performed via gavage, based on a water/PEG400/ethanol formulation.
(§3) An internal standard (which may also be a chemically unrelated substance) was added to the samples of the compounds of the invention, calibration samples and qualifiers, and there followed protein precipitation by means of acetonitrile in excess. Addition of a buffer solution matched to the LC conditions, and subsequent vortexing, was followed by centrifugation at 1000 g. The supernatant was analysed by LC-MS/MS using C18 reversed-phase columns and variable mobile phase mixtures. The substances were quantified via the peak heights or areas from extracted ion chromatograms of specific selected ion monitoring experiments.
(§4) The plasma concentration/time plots determined were used to calculate the pharmacokinetic parameters such as AUC, Cmax, t1/2 (terminal half-life), F (bioavailability), MRT (mean residence time) and CL (clearance), by means of a validated pharmacokinetic calculation program.
(§5) Since the substance quantification was performed in plasma, it was necessary to determine the blood/plasma distribution of the substance in order to be able to adjust the pharmacokinetic parameters correspondingly. For this purpose, a defined amount of substance was incubated in K3 EDTA whole blood of the species in question in a rocking roller mixer for 20 min. After centrifugation at 1000 g, the plasma concentration was measured (by means of LC-MS/MS; see above) and determined by calculating the ratio of the Cblood/Cplasma value.

[2] = molecular target: T1, recombinant guanylate cyclase reporter cell line (Rattus norvegicus, UniProt P20595); experiment: Effect on a recombinant guanylate cyclase reporter cell line; type: cell-based; details: for MEC: minimum effective concentration; for EC50: half maximal effective concentration
T1 construct: expressed in transfected cells
T1 sequence (P20595 1-619): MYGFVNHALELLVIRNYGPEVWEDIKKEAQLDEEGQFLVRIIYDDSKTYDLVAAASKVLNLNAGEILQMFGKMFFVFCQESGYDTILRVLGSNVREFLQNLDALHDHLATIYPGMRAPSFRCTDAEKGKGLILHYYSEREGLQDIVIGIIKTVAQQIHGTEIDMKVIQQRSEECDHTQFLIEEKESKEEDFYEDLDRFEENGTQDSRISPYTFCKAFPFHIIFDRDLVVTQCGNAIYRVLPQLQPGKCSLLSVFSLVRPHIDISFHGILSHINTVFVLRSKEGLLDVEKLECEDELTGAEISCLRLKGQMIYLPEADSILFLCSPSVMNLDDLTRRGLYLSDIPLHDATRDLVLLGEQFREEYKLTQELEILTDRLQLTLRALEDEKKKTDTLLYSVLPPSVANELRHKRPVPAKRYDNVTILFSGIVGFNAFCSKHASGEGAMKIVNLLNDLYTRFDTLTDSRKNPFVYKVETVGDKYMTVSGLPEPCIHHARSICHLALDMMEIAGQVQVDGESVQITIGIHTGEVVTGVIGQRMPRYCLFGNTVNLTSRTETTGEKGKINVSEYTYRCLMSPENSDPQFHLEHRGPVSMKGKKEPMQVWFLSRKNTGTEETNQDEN
T1 sequence (P19686 1-690 partner): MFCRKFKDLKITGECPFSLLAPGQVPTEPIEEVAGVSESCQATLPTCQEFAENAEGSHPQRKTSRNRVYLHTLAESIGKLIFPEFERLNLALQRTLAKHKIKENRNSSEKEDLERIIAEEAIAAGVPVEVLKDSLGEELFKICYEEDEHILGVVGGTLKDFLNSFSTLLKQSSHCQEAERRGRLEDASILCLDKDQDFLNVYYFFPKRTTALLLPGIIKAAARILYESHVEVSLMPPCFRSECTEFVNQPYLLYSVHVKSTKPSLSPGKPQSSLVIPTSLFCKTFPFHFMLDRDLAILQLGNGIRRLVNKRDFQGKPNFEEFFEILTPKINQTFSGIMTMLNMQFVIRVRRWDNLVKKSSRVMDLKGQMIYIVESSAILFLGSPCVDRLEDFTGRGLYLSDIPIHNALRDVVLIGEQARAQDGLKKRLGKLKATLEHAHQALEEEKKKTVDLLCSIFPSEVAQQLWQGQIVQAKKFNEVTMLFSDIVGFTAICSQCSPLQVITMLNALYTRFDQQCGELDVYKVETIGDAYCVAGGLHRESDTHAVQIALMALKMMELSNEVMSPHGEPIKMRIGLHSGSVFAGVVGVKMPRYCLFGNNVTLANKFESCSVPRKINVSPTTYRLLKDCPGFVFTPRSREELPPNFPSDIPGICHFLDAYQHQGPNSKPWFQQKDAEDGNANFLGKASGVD
Method: B-1. Effect on a Recombinant Guanylate Cyclase Reporter Cell Line
The cellular activity of the compounds according to the invention was determined using a recombinant guanylate cyclase reporter cell line, as described in F. Wunder et al., Anal. Biochem. 339, 104-112 (2005).

[3] = Pharmacokinetic parameters following intravenous administration in rats; type: in vivo, male Wistar rats; details: intravenous administration
Method: as §1, §2, §3, §4, §5

Row | Compound | AUCnorm [1] [kg·h/L] | F [1] [%] | MEC [2] [nM] | AUCnorm [3] [kg·h/L] | EC50 [2] [nM] | MRT [1] [h]
1 | O=C(O)c1cnn(C2CCCN(c3cc(Cl)ccc3-c3ccc(N4CCN(CC(F)(F)F)CC4)cc3)C2)c1C(F)F (single isomer, unassigned; enantiomer 2) [Example 21, 1-[1-[5-Chloro-2-[4-[4-(2,2,2-trifluoroethyl)piperazin-1-yl]phenyl]phenyl]-3-piperidyl]-5-(difluoromethyl)pyrazole-4-carboxylic acid (Enantiomer 2)] | 4.04 | 56.1 | 1.6 | 7.23 | – | –
2 | CC(C)C(=O)N1CCN(c2ccc(-c3ccc(Cl)cc3N3CCCC(n4ncc(C(=O)O)c4C(F)F)C3)cc2)CC1 (single isomer, unassigned; enantiomer 2) [Example 48, 1-{1-[4-Chloro-4′-(4-isobutyrylpiperazin-1-yl)[biphenyl]-2-yl]piperidin-3-yl}-5-(difluoromethyl)-1H-pyrazole-4-carboxylic acid (Enantiomer 2)] | – | – | 3.0 | – | 7.5 | –
3 | O=C(O)c1cnn(C2CCCN(c3cc(Cl)ccc3-c3ccc(N4CCN(CC5CC5(F)F)CC4)cc3)C2)c1C(F)F (mixture of isomers) [Example 27, 1-{1-[4-Chloro-4′-(4-{[2,2-difluorocyclopropyl]methyl}piperazin-1-yl)[biphenyl]-2-yl]piperidin-3-yl}-5-(difluoromethyl)-1H-pyrazole-4-carboxylic acid hydrochloride (Diastereomeric mixture 2)] | – | – | 0.3 | – | 2.8 | –
4 | O=C(O)c1cnn(C2CCCN(c3cc(Cl)ccc3-c3ccc(N4CCN(C5CC5)CC4)cc3)C2)c1C(F)F (single isomer, unassigned; enantiomer 1) [Example 8, 1-{1-[4-Chloro-4′-(4-cyclopropylpiperazin-1-yl)[biphenyl]-2-yl]piperidin-3-yl}-5-(difluoromethyl)-1H-pyrazole-4-carboxylic acid hydrochloride (Enantiomer 1)] | – | – | 3.0 | – | 24.5 | –
5 | CCN1CCN(c2ccc(-c3ccc(Cl)cc3N3CCCC(n4ncc(C(=O)O)c4C(F)F)C3)cn2)CC1 (single isomer, unassigned; enantiomer 2) [Example 60, 1-(1-{5-Chloro-2-[6-(4-ethylpiperazin-1-yl)pyridin-3-yl]phenyl}piperidin-3-yl)-5-(difluoromethyl)-1H-pyrazole-4-carboxylic acid hydrochloride (Enantiomer 2)] | – | – | 30.0 | – | 70 | –
6 | CC(C)CN1CCN(c2ncc(-c3ccc(Cl)cc3N3CCCC(n4ncc(C(=O)O)c4C(F)F)C3)cn2)CC1 (single isomer, unassigned; enantiomer 2) [Example 70, 1-(1-{5-Chloro-2-[2-(4-isobutylpiperazin-1-yl)pyrimidin-5-yl]phenyl}piperidin-3-yl)-5-(difluoromethyl)-1H-pyrazole-4-carboxylic acid hydrochloride (Enantiomer 2)] | – | – | 3.0 | – | 21.5 | –
7 | CN1CCN(c2ncc(-c3ccc(Cl)cc3N3CCCC(n4ncc(C(=O)O)c4C(F)F)C3)cn2)CC1 (single isomer, unassigned; enantiomer 2) [Example 71, 1-(1-{5-Chloro-2-[2-(4-methylpiperazin-1-yl)pyrimidin-5-yl]phenyl}piperidin-3-yl)-5-(difluoromethyl)-1H-pyrazole-4-carboxylic acid hydrochloride (Enantiomer 2)] | – | – | 30.0 | – | 92 | –
8 | O=C(O)c1cnn(C2CCCN(c3cc(Cl)ccc3-c3ccc(N4CCN(C[C@H]5C[C@H]5F)CC4)cc3)C2)c1C(F)F (single isomer, unassigned; stereoisomer 2) [Example 37] | – | – | 1.0 | – | 2.1 | –
9 | O=C(O)c1cnn(-c2cccc(-c3cc(Cl)ccc3-c3ccc(N4CCN(CC5CC5)CC4)cc3)n2)c1C(F)(F)F [174 (WO2012/058132), reference compound] | 0.63 | 81.8 | – | 0.77 | – | 8.41
10 | O=C(O)c1cnn(C2CCCN(c3cc(Cl)ccc3-c3ccc(N4CCN(C[C@@H]5C[C@@H]5F)CC4)cc3)C2)c1C(F)F (single isomer, unassigned; stereoisomer 2) [Example 36] | – | – | 1.0 | – | 4.2 | –
11 | CCCN1CCN(c2ccc(-c3ccc(Cl)cc3N3CCCC(n4ncc(C(=O)O)c4C(F)F)C3)cn2)CC1 (single isomer, unassigned; enantiomer 2) [Example 61, 1-(1-{5-Chloro-2-[6-(4-propylpiperazin-1-yl)pyridin-3-yl]phenyl}piperidin-3-yl)-5-(difluoromethyl)-1H-pyrazole-4-carboxylic acid hydrochloride (Enantiomer 2)] | – | – | 10.0 | – | 28.5 | –
12 | NC(=O)CCN1CCN(c2ccc(-c3ccc(Cl)cc3N3CCCC(n4ncc(C(=O)O)c4C(F)F)C3)cc2)CC1 (single isomer, unassigned; enantiomer 2) [Example 47, 1-(1-{4′-[4-(3-Amino-3-oxopropyl)piperazin-1-yl]-4-chloro[biphenyl]-2-yl}piperidin-3-yl)-5-(difluoromethyl)-1H-pyrazole-4-carboxylic acid (Enantiomer 2)] | – | – | 3.0 | – | 18 | –
13 | O=C(O)c1cnn(C2CCCN(c3cc(Cl)ccc3-c3ccc(C4CCN(C(=O)C5CC5)CC4)cc3)C2)c1C(F)F (single isomer, unassigned; enantiomer 2) [Example 57, 1-(1-{4-Chloro-4′-[1-(cyclopropylcarbonyl)piperidin-4-yl][biphenyl]-2-yl}piperidin-3-yl)-5-(difluoromethyl)-1H-pyrazole-4-carboxylic acid hydrochloride (Enantiomer 2)] | – | – | 0.3 | – | < 1 | –
14 | CC(C)CN1CCN(c2ccc(-c3ccc(Cl)cc3N3CCCC(n4ncc(C(=O)O)c4C(F)F)C3)cn2)CC1 (single isomer, unassigned; enantiomer 2) [Example 62, 1-(1-{5-Chloro-2-[6-(4-isobutylpiperazin-1-yl)pyridin-3-yl]phenyl}piperidin-3-yl)-5-(difluoromethyl)-1H-pyrazole-4-carboxylic acid hydrochloride (Enantiomer 2)] | – | – | 3.0 | – | 7.5 | –
